The values that follow come from ChEMBL document CHEMBL5038581, “Design, synthesis, and biological evaluation of novel dual inhibitors targeting lysine specific demethylase 1 (LSD1) and histone deacetylases (HDAC) for treatment of gastric cancer” (Eur J Med Chem, 2021).

Data set [1] concerns MGC-803. Nature of the data set: Inhibition of cell migration in human MGC-803 cells 0.2 to 0.8 uM up to 24 hrs by wound healing assay. It is filed as functional, cell-based. The conditions noted are these: dose 0.2-0.8 µM, time hrs <=24.
Data set [2] concerns MGC-803. Nature of the data set: Induction of apoptosis in human MGC-803 cells assessed as decrease in Bcl2 protein expression at 1.25 to 7.5 uM incubated for 48 hrs by western blot analysis. It is filed as functional, cell-based. To be noted: dose 1.25-7.5 µM. In general terms: In western blotting, separated proteins are transferred to a membrane and probed.
The next data set deals with CYP2C9 (Homo sapiens, UniProt P11712). Kind of data set: Inhibition of CYP2C9 (unknown origin) at 10 uM using diclofenac as substrate relative to control. It is filed as ADME. To be noted: probe diclofenac.
The next data set deals with CYP2D6 (Homo sapiens, UniProt P10635). Kind of data set: Inhibition of CYP2D6 (unknown origin) at 10 uM using dextromethorphan as substrate relative to control. The class given is ADME. The conditions noted are these: probe dextromethorphan.
Data set [3] deals with MGC-803. Nature of the data set: cells. The conditions noted are these: Homo sapiens, MGC-803, 72 h.
Data set [4] is described as follows: Metabolic stability in rat liver microsomes assessed as intrinsic clearance in presence of NADPH at 1 uM by LC-MS/MS analysis. The class given is ADME, Microsome. The conditions noted are these: read-out: CLH.
In a further data set the target is Histone deacetylase 5 (Homo sapiens, UniProt Q9UQL6). Nature of the data set: Inhibition of HDAC5 (unknown origin) using Ac-peptide as substrate preincubated for 15 mins followed by substrate addition by fluorescence assay.
A short description of data set [5]: Metabolic stability in rat liver microsomes assessed as half life in presence of NADPH at 1 uM by LC-MS/MS analysis. It is filed as ADME, Microsome. (In general: Liver microsomes are a subcellular fraction often used to study metabolism.)
Data set [6] concerns MGC-803. Nature of the data set: Induction of apoptosis in human MGC-803 cells assessed as apoptotic cells at 2.5 uM incubated for 48 hrs by annexin V-FITC and PI staining based flowcytometry analysis (Rvb =4.9 %). It is filed as functional.
A further data set concerns the target Histone deacetylase 11 (Homo sapiens, UniProt Q96DB2). Kind of data set: Inhibition of HDAC11 (unknown origin) using Ac-peptide as substrate preincubated for 15 mins followed by substrate addition by fluorescence based microplate reader analysis.
The target in data set [7] is Amine oxidase [flavin-containing] B (Homo sapiens, UniProt P27338). Kind of data set: Inhibition of human recombinant MAO-B by multimode plate reader assay.
Data set [8] has as its system MGC-803. Kind of data set: Induction of apoptosis in human MGC-803 cells assessed as increase in Bax protein expression at 1.25 to 7.5 uM incubated for 48 hrs by western blot analysis. It is filed as functional, cell-based. To be noted: dose 1.25-7.5 µM.
Data set [9] can be described thus: Metabolic stability in human liver microsomes assessed as half life in presence of NADPH at 1 uM by LC-MS/MS analysis. The class given is ADME, Microsome.
A further data set deals with HCT-116. Nature of the data set: cells. To be noted: Homo sapiens, HCT-116, 72 h.
In data set [10] the target is T1, Protein deacetylase HDAC6 (Homo sapiens, UniProt Q9UBN7).
T1 sequence (Q9UBN7 whole entry): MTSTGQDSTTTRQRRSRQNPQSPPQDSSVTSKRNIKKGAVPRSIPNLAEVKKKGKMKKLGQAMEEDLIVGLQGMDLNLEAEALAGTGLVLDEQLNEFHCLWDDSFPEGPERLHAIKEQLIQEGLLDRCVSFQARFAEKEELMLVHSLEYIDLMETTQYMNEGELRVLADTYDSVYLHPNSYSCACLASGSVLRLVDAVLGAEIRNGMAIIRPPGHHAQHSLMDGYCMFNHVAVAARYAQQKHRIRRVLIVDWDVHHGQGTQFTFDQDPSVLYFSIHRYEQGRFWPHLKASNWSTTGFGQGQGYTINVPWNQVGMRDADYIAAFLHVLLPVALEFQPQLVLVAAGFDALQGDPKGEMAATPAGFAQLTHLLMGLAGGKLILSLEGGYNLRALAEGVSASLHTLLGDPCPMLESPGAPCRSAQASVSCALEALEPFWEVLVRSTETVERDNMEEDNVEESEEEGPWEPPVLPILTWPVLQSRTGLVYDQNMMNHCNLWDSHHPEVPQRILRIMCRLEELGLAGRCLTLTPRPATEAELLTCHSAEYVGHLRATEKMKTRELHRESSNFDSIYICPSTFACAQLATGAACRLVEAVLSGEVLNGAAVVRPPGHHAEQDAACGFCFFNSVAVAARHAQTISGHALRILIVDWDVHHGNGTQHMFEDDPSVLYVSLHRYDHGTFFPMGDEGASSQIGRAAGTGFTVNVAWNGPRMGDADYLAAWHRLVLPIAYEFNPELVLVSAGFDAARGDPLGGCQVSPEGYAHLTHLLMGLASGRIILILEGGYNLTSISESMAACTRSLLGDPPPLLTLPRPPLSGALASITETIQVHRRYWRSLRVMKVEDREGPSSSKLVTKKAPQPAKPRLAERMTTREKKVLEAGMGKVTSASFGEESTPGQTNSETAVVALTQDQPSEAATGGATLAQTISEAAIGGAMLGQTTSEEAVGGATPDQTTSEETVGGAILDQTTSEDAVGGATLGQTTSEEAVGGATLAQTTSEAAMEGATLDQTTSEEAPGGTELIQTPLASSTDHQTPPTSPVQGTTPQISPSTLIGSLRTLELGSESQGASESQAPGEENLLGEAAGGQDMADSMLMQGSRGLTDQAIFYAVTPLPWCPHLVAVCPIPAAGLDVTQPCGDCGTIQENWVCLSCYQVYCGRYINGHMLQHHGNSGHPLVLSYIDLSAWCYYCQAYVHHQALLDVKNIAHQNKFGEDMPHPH
Nature of the data set: Inhibition of HDAC6 (unknown origin) using Ac-peptide as substrate preincubated for 15 mins followed by substrate addition by fluorescence assay.

The target in another data set is T2, CYP1A2 (Homo sapiens, UniProt P05177).
T2 sequence (P05177 whole entry): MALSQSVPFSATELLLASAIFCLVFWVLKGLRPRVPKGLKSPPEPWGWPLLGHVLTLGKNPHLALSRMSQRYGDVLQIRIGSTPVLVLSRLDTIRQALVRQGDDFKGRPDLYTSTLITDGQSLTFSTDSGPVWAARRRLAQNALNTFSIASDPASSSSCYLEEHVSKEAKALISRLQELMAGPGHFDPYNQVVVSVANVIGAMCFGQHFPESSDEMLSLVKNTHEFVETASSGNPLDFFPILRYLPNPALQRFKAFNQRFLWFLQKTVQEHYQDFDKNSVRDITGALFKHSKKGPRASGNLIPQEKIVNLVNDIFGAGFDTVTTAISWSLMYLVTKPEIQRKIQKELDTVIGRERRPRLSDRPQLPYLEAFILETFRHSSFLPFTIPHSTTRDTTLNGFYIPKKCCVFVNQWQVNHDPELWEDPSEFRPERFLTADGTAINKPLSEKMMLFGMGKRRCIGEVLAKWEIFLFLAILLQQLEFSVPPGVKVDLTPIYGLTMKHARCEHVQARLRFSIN
Kind of data set: Inhibition of CYP1A2 (unknown origin) at 10 uM using phenacetin as substrate relative to control. It is filed as ADME. The conditions noted are these: probe phenacetin.

The target in a further data set is Histone deacetylase 8 (Homo sapiens, UniProt Q9BY41). Nature of the data set: Inhibition of HDAC8 (unknown origin) using Ac-peptide as substrate preincubated for 15 mins followed by substrate addition by fluorescence based microplate reader analysis.
Data set [11] has as its target Amine oxidase [flavin-containing] A (Homo sapiens, UniProt P21397). Nature of the data set: Inhibition of human recombinant MAO-A by multimode plate reader assay.

Chain of CYP2D6 (P10635 whole entry): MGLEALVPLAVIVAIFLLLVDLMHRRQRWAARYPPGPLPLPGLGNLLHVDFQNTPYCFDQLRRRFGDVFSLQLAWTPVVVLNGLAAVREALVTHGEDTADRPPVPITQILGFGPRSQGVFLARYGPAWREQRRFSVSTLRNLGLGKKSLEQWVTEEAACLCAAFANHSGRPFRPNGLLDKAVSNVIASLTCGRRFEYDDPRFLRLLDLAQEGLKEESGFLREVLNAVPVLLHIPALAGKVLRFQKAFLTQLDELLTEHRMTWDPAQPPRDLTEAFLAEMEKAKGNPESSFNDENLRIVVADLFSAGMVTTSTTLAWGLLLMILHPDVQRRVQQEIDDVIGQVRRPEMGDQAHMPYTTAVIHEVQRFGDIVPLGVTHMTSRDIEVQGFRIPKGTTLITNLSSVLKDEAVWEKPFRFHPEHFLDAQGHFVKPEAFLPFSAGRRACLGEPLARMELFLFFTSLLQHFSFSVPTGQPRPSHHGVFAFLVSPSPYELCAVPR
Chain of Histone deacetylase 5 (Q9UQL6 whole entry): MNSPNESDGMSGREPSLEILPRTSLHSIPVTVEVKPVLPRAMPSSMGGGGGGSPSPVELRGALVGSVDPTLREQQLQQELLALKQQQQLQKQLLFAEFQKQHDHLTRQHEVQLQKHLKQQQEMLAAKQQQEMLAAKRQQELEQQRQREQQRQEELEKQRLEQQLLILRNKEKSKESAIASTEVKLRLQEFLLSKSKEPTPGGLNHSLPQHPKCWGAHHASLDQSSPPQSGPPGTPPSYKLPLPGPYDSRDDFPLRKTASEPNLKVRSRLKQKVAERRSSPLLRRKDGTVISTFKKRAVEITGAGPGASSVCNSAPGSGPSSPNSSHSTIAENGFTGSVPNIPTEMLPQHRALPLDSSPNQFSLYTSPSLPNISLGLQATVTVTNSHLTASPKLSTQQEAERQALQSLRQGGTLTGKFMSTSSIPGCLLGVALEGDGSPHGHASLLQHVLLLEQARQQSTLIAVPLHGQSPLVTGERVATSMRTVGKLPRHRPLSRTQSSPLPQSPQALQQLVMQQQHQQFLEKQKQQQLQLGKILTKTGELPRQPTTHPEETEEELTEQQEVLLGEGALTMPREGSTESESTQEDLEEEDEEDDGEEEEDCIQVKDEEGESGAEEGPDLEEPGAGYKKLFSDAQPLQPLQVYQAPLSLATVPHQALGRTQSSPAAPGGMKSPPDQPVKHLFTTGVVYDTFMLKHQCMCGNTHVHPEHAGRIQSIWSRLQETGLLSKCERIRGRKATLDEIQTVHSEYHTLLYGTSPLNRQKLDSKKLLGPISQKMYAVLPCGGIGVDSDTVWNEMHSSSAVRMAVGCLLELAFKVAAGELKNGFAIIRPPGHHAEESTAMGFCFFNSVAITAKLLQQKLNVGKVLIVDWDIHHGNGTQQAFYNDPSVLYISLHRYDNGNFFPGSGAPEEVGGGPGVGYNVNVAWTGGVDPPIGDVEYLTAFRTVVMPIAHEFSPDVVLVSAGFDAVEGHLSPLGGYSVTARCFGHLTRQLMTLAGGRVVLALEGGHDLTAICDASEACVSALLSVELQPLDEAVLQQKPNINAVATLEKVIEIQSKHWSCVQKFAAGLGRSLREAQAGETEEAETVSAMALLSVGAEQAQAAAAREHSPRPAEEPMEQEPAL
Chain of CYP2C9 (P11712 whole entry): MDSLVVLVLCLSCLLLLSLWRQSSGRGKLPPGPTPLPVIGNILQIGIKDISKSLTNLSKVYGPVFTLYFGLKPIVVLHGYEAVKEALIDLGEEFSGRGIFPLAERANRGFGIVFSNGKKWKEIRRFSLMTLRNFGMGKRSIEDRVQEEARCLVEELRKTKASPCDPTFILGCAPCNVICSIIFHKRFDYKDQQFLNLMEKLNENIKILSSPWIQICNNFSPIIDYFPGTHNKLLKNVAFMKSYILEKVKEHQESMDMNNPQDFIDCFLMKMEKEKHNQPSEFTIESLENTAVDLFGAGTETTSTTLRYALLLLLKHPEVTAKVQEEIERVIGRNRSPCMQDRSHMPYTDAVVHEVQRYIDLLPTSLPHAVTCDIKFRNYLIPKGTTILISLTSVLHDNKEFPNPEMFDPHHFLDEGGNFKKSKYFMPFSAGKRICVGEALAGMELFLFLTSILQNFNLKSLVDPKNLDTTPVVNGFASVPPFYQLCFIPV
Chain of Amine oxidase [flavin-containing] B (P27338 whole entry): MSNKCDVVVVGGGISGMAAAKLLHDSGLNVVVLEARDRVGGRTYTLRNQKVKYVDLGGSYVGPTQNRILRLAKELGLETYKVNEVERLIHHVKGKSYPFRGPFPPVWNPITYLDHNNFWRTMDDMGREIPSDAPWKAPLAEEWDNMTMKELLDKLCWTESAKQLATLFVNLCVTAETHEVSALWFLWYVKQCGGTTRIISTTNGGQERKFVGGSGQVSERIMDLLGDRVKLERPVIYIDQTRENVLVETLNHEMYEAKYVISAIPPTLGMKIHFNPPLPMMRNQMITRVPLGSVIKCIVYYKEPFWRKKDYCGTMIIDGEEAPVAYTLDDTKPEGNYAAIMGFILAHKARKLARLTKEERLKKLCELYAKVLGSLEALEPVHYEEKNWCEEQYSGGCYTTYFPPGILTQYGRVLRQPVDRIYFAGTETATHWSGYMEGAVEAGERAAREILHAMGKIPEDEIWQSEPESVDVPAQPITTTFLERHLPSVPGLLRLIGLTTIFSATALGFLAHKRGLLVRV
Chain of Amine oxidase [flavin-containing] A (P21397 whole entry): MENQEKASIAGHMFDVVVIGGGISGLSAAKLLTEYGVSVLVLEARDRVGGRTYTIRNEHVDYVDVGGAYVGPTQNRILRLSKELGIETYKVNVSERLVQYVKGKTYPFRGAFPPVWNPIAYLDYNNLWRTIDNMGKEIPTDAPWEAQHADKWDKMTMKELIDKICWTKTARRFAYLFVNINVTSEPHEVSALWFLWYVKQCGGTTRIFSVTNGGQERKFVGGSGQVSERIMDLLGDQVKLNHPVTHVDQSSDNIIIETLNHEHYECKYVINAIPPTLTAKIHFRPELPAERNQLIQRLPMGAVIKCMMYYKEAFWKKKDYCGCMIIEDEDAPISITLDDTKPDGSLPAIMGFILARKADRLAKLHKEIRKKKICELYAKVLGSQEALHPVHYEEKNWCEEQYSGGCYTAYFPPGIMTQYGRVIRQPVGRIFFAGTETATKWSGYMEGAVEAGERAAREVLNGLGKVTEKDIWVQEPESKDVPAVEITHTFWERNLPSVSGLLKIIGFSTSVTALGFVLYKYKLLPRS
Chain of Histone deacetylase 8 (Q9BY41 whole entry): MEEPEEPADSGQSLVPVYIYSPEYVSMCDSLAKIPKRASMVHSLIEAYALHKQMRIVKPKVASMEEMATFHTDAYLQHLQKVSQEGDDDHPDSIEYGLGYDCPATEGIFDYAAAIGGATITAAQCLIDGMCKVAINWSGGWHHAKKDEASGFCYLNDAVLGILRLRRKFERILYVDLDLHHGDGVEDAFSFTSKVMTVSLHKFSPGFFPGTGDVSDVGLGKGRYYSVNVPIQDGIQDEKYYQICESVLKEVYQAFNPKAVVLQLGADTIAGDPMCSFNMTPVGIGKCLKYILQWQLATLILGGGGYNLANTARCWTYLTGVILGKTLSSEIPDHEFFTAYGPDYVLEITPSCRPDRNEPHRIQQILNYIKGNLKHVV
Chain of Histone deacetylase 11 (Q96DB2 whole entry): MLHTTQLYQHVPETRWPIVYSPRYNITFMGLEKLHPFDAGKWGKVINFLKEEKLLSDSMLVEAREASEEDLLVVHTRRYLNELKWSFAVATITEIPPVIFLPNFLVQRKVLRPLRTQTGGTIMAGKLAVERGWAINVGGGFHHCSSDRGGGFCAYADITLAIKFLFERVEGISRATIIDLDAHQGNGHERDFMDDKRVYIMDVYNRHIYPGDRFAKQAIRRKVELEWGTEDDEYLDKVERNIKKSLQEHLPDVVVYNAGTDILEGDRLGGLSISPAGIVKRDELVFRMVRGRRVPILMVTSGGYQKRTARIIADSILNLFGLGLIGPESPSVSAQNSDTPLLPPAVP

By inhibition is commonly meant the change of the read-out against control, counted positive when it falls. As a reminder, the IC50 is the concentration that gives 50% inhibition. One may read the half-life as how long it takes for the measured level to halve. For `Cc1ccc(-c2cc(/C=C/c3ccc(C(=O)NO)cc3)ccn2)c(F)c1`, in the data set with MGC-803 [1], the inhibition entry was “Dose-Dependent Effect”. Besides, the Activity result in the data set on MGC-803 [2] was “Dose-Dependent Effect”; in the data set with MGC-803 [6], 77.9%; in the data set on MGC-803 [8] it was “Dose-Dependent Effect”. The inhibition at 10 µM on CYP2C9 turned out to be 11.7%; on CYP2D6, 5.8%; against CYP1A2, 0.95%. Besides, the IC50 with MGC-803 [3] was 0.77 µM; on Histone deacetylase 5 it was above 10 µM; on Histone deacetylase 11, 4.93 µM; in data set [7] it was above 100 µM; in the data set on HCT-116, 0.8 µM; in [10], 0.015 µM. Moreover, the IC50 is 8.78 µM against Histone deacetylase 8 and above 100 µM in data set [11]. For the same compound, the microsomal CLint at 1 µM in data set [4] was found to be 202 µL/min/mg. The half-life at 1 µM was 17.2 min in data set [5] and 51.3 min in [9].
With `O=C(NO)c1ccc(/C=C/c2ccnc(-c3ccccc3O)c2)cc1`, the inhibition entry with MGC-803 [1] was “Dose-Dependent Effect”. Also, the values for the Activity result with MGC-803 [2], in the data set with MGC-803 [6] and in the data set on MGC-803 [8] were “Dose-Dependent Effect”, 33.2% and “Dose-Dependent Effect”, respectively. Also, the inhibition at 10 µM against CYP2C9 was 13.1%; against CYP2D6 it was 15%; on CYP1A2, 48.4%. The IC50 is 1.42 µM in the data set on MGC-803 [3]; above 10 µM at Histone deacetylase 5; above 10 µM on Histone deacetylase 11; 69.4 µM in [7]; 1.45 µM in the data set on HCT-116; 0.047 µM in data set [10]. Moreover, the IC50 at Histone deacetylase 8 amounted to 4.62 µM; in data set [11], 34.1 µM. Further, the microsomal CLint at 1 µM in data set [4] came to 505 µL/min/mg. Further, the values for the half-life at 1 µM in data set [5] and in data set [9] were 6.9 min and 33 min, respectively.
